Assay results reported in US20070135406A1, “Diazabicyclononene and tetrahydropyridine derivatives with a new side-chain” (priority 2003, published 2007).

Target: T1, human recombinant renin (Homo sapiens, UniProt P00797)
T1 sequence (P00797 67-406): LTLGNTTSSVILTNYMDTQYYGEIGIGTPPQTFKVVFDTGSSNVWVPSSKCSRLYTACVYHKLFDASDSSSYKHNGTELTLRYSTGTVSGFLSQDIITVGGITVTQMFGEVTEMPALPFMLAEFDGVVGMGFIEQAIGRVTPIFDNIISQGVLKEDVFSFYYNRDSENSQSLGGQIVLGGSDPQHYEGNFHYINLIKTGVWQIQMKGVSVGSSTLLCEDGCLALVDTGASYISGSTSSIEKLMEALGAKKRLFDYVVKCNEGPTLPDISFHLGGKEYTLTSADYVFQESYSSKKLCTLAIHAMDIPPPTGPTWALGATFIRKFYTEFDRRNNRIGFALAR
Test: Inhibition of human recombinant renin (enzymatic in vitro assay, Ang I detected by EIA)
Assay type: biochemical
Conditions: human recombinant renin 0.16 ng/mL, synthetic human angiotensin(1-14) 0.5 μM, 37° C. for 3 h
Protocol: Inhibition of Human Recombinant Renin by the Compounds of the Invention The enzymatic in vitro assay was performed in 384well polypropylene plates (Nunc). The assay buffer consisted of 10 mM PBS (Gibco BRL) including 1 mM EDTA and 0.1% BSA. The incubates were composed of 50 μL per well of an enzyme mix and 2.5 μL of renin inhibitors in DMSO. The enzyme mix was premixed at 4° C. and consists of the following components: • human recombinant renin (0.16 ng/mL).synthetic human angiotensin(1-14) (0.5 μM) • hydroxyquinoline sulfate (1 mM) The mixtures were then incubated at 37° C. for 3 h. To determine the enzymatic activity and its inhibition, the accumulated Ang I was detected by an enzyme immunoassay (EIA) in 384well plates (Nunc). 5 μL of the incubates or standards were transferred to immuno plates which were previously coated with a covalent complex of Ang I and bovine serum albumin (Ang I—BSA). […] of Ang I-antibodies in essaybuffer above including 0.01% Tween 20 were added and a primary incubation made at 4° C. overnight The plates were washed 3 times with PBS including 0.01% Tween 20, and then incubated for 2 h at rt with an antirabbit-peroxidase coupled antibody (WA 934, Amersham).

## COCCCOc1nccc(CN(C(=O)C2=C(c3ccc(CCCOc4c(F)ccc(F)c4Cl)cc3)C[C@@H]3CC[C@H]2N3)C2CC2)c1C (racemic) [Example 1, (rac.)-(1R*,5S*)-3-{4-[3-(2-Chloro-3,6-difluorophenoxy)propyl]phenyl}-8-azabicyclo[3.2.1]oct-2-ene-2-carboxylic acid cyclopropyl-[2-(3-methoxy-propoxy)-3-methylpyridin-4-ylmethyl]amide]
  IC50: 0.79 nM
